Data on 20 compounds can be found in article PMC6272327, “Discovery of Metal Ions Chelator Quercetin Derivatives with Potent Anti-HCV Activities” (Molecules, 2015).

SMILES strings stand for the structures. Like-named read-outs stand apart in the source and are kept apart here.

Data set [1] has as its system HCV infectious virus J399EM. The experiment in a line: Anti-HCV assay in authentic HCV infection/replication system (J399EM EGFP reporter virus) in Huh7.5.1 cells. It is filed as cell-based, hepatitis C virus (JFH1-derived, genotype 2a). Particulars: for EC50: Hepatitis C virus, Huh-7.5.1, 72 h; for SI (selectivity index): ratio of CC50 to EC50, Huh7.5.1 cells. On the procedure: (§1) The inhibition of HCV by all synthesized quercetin derivatives was evaluated following a previously reported procedure. All newly synthesized compounds were tested in authentic HCV infection/replication system in the human hepatoma cell lines Huh7.5.1 using mycophenolic acid (MPA) as control compound. The cytotoxicity effect of the test compounds was also evaluated in the same cell line by MTT method. Antiviral effect and cytotoxicity effect were summarized as EC50 and CC50 respectively, as well as the selective index (SI) which is the ratio of CC50 to EC50. The stability of quercetin-3-O-ester compounds were also tested in the same buffer as the antiviral activity assay at 37 °C and the hydrolysate was measured by HPLC.
The biological assays were performed following a previously reported procedure. The Huh7.5.1 cell line and the HCV infectious virus J399EM were kindly provided by Xin-Wen Chen, Wuhan Institute of Virology, Chinese Academy of Sciences. Huh7.5.1 cells were cultured in Dulbecco’s modified Eagle’s medium (DMEM) containing 10% (v/v) fetal bovine serum, 0.5 mg/mL G418, 100 IU/mL penicillin, and […].
J399EM is an infectious HCV virus derived from the JFH1 virus (genotype 2a) by insertion of enhanced green fluorescent protein (EGFP) into the HCV NS5A region. The establishment of the infectious J399EM HCV virus has been described previously. J399EM was propagated in Huh7.5.1 cells. Briefly, Huh7.5.1 cells were infected with J399EM at MOI = 0.1 and cultured for 4 days. Culture supernatant was collected and filtered through a 0.45 μm membrane and stored at −80 °C as virus stock. Virus titer was tested in Huh7.5.1 cells. Stocks were serially diluted, and the foci forming units (FFU) were determined as the number of fluorescent colonies formed in infected Huh7.5.1.
All the compounds were first dissolved in DMSO at 50 mM, and then diluted to various concentrations (50 μM, 25 μM, 12.5 μM, 6.3 μM and 3.1 μM). Approximately 1 × 10^4 Huh7.5.1 cells per well were plated in an opaque 96-well tissue culture plate (Costar 3904). The next day, the medium was replaced by J399EM virus at an MOI of 0.3. Four hours later, the virus inoculum was removed and medium containing different concentrations of compounds was added. After an additional 72 h of incubation, the culture medium was removed and the EGFP autofluorescence was measured by using a […] with excitation at 488 nm and emission at 516 nm. Compounds and controls were performed in duplicate and each experiment repeated independently at least twice.

Data set [2] in a line: Cell viability / cytotoxicity by MTT method. Particulars: human. Format: cell-based. On the procedure: as §1
After the EGFP signal was read, cell viability was measured in the same plate by the MTT [3-(4,5-dimethylthiazol-2-yl)-2,5-diphenyltetrazolium bromide; Sigma-Aldrich, St. Louis, MO, USA] method. Briefly, MTT (1 mg/mL) was dissolved in PBS. Cell culture supernatants were removed and replaced with MTT and further cultured for 4 h; cells were then lysed with 10% sodium dodecyl sulfate (SDS), 50% N,N-dimethylformamide, pH 7.2. OD570 values were read. The percentage of cell death was calculated against the control well without compounds.

A word on the EC50: it is the concentration giving half of the maximal effect. In general, melting point refers to the temperature, or range, at which the solid turns liquid. What is called CC50 is the concentration that lowers cell viability or growth by half. In the case of `O=c1c(O)c(-c2ccc(O)c(O)c2)oc2cc(OCc3cccc([N+](=O)[O-])c3)cc(O)c12` [Compound 3m, 2-(3,4-Dihydroxyphenyl)-3,5-dihydroxy-7-((3-nitrobenzyl)oxy)-4H-chromen-4-one], the melting point was 264 to 266 °C. In data set [1], the response was half-maximal at 6.6 ± 1.1 µM (EC50) and the “SI (selectivity index)” value turned out to be 2.3. Also, the CC50 in data set [2] is 15 ± 0.1 µM.

In the case of `O=c1c(O)c(-c2ccc(O)c(O)c2)oc2cc(OCc3cccc(Br)c3)cc(O)c12` [Compound 3j, 7-((3-Bromobenzyl)oxy)-2-(3,4-dihydroxyphenyl)-3,5-dihydroxy-4H-chromen-4-one], the melting point lay within 234 to 236 °C. Moreover, in data set [1], it took 4.1 ± 0.3 µM to reach a half-maximal effect (EC50) and the “SI (selectivity index)” value is on record as 5.4. In data set [2], the midpoint of cytotoxicity, the CC50, lay at 22.3 ± 1.2 µM.

On to `O=c1c(O)c(-c2ccc(O)c(O)c2)oc2cc(OCc3ccc(Br)cc3)cc(O)c12` [Compound 3p, 7-((4-Bromobenzyl)oxy)-2-(3,4-dihydroxyphenyl)-3,5-dihydroxy-4H-chromen-4-one], for which the melting point was 256 to 257 °C. Also, in data set [1], a half-maximal response (EC50) required 5.5 ± 1.5 µM and the “SI (selectivity index)” value amounted to 6.4. The compound also showed a CC50 in data set [2] of 35.4 ± 1.6 µM.

`Cc1ccccc1COc1cc(O)c2c(=O)c(O)c(-c3ccc(O)c(O)c3)oc2c1` [Compound 3e, 2-(3,4-Dihydroxyphenyl)-3,5-dihydroxy-7-((2-methylbenzyl)oxy)-4H-chromen-4-one] registered a melting point of 241 to 242 °C. In addition, in data set [1], the concentration giving a half-maximal response (EC50) is 4.9 ± 0.6 µM and the “SI (selectivity index)” value worked out at 4.4. Besides, the CC50 in data set [2] amounted to 21.7 ± 1.4 µM.

`COc1ccccc1C(=O)Oc1c(-c2ccc(O)c(O)c2)oc2cc(O)cc(O)c2c1=O` [Compound 4d, 2-(3,4-Dihydroxyphenyl)-5,7-dihydroxy-4-oxo-4H-chromen-3-yl 2-methoxybenzoate] showed a melting point of 183 to 184 °C. In addition, in data set [1], the EC50 was found to be 11.7 ± 1.3 µM and the “SI (selectivity index)” value is recorded as more than 4.3. In addition, in data set [2], the cytotoxic concentration (CC50) is more than 50 µM.

Take `Nc1ccccc1C(=O)Oc1c(-c2ccc(O)c(O)c2)oc2cc(O)cc(O)c2c1=O` [Compound 4c, 2-(3,4-Dihydroxyphenyl)-5,7-dihydroxy-4-oxo-4H-chromen-3-yl 2-aminobenzoate]: the melting point was 198 to 199 °C. Moreover, in data set [1], a half-maximal effect (EC50) was put at 12.8 ± 2.8 µM and the “SI (selectivity index)” value is listed as more than 3.9. Besides, the CC50 in data set [2] (Huh7.5.1 cells, MTT, concentration required to reduce cell proliferation by 50%, average of duplicate determinations, read-out: CC50) was more than 50 µM.

Regarding `O=c1c(O)c(-c2ccc(O)c(O)c2)oc2cc(OCc3ccc(Cl)cc3)cc(O)c12` [Compound 3o, 7-((4-Chlorobenzyl)oxy)-2-(3,4-dihydroxyphenyl)-3,5-dihydroxy-4H-chromen-4-one], the melting point lay in the range of 266 to 267 °C. Further, in data set [1], a half-maximal response (EC50) required 3.9 ± 0.3 µM and the “SI (selectivity index)” value was 3.9. The CC50 in data set [2] is 15.1 ± 0.1 µM.

On to `O=c1c(O)c(-c2ccc(O)c(O)c2)oc2cc(OCc3ccccc3[N+](=O)[O-])cc(O)c12` [Compound 3g, 2-(3,4-Dihydroxyphenyl)-3,5-dihydroxy-7-((2-nitrobenzyl)oxy)-4H-chromen-4-one], for which the melting point fell in the range of 260 to 261 °C. Besides, in data set [1], the midpoint of the response, the EC50, lay at 7 ± 1.1 µM and the “SI (selectivity index)” value came to 2.1. Half-maximal cytotoxicity in data set [2] (CC50) was put at 14.6 ± 0.5 µM.

`O=c1c(O)c(-c2ccc(O)c(O)c2)oc2cc(OCc3ccc(F)cc3)cc(O)c12` [Compound 3n, 2-(3,4-Dihydroxyphenyl)-7-((4-fluorobenzyl)oxy)-3,5-dihydroxy-4H-chromen-4-one] registered a melting point of 254 to 255 °C. In data set [1], the response was half-maximal at 5.1 ± 0.5 µM (EC50) and the “SI (selectivity index)” value is 6.2. The compound also registered a CC50 in data set [2] of 31.9 ± 3.4 µM.

Compound `O=C(Oc1c(-c2ccc(O)c(O)c2)oc2cc(O)cc(O)c2c1=O)c1cccc(Cl)c1` [Compound 4j, 2-(3,4-Dihydroxyphenyl)-5,7-dihydroxy-4-oxo-4H-chromen-3-yl 3-chlorobenzoate] came in with a melting point of more than 300 °C. In addition, a half-maximal effect in data set [1] (EC50) was put at 23 ± 3.2 µM. In data set [2], the CC50 is more than 50 µM.

Consider `CC(C)Oc1c(-c2ccc(O)c(O)c2)oc2cc(O)cc(O)c2c1=O` [Compound 12b, 2-(3,4-Dihydroxyphenyl)-5,7-dihydroxy-3-isopropoxy-4H-chromen-4-one], for which the melting point lay within 259 to 262 °C. Besides, in data set [1], a half-maximal response (EC50) required 38.9 ± 2.5 µM and the “SI (selectivity index)” value is on record as 0.7. The compound further gave a CC50 in data set [2] of 28.8 ± 2 µM.

On to `N#Cc1ccc(COc2cc(O)c3c(=O)c(O)c(-c4ccc(O)c(O)c4)oc3c2)cc1` [Compound 3r, 4-(((2-(3,4-Dihydroxyphenyl)-3,5-dihydroxy-4-oxo-4H-chromen-7-yl)oxy)methyl)benzonitrile], for which the melting point is 252 to 254 °C. In data set [1], the EC50 was 6.2 ± 0.2 µM and the “SI (selectivity index)” value worked out at 1.6. For the same compound, in data set [2], the CC50 was 10.1 ± 0.1 µM.

`N#Cc1ccc(C(=O)Oc2c(-c3ccc(O)c(O)c3)oc3cc(O)cc(O)c3c2=O)cc1` [Compound 4n, 2-(3,4-Dihydroxyphenyl)-5,7-dihydroxy-4-oxo-4H-chromen-3-yl 4-cyanobenzoate] showed a melting point of 196 to 197 °C. Further, in data set [1], the response was half-maximal at 11.4 ± 2.3 µM (EC50) and the “SI (selectivity index)” value is more than 4.4. In data set [2], this compound registered a CC50 of more than 50 µM.

`Nc1cccc(C(=O)Oc2c(-c3ccc(O)c(O)c3)oc3cc(O)cc(O)c3c2=O)c1` [Compound 4g, 2-(3,4-Dihydroxyphenyl)-5,7-dihydroxy-4-oxo-4H-chromen-3-yl 3-aminobenzoate] yielded a melting point of 216 to 217 °C. In data set [1], the midpoint of the response, the EC50, lay at 21.1 ± 1.3 µM and the “SI (selectivity index)” value was more than 2.4. The CC50 in data set [2] is more than 50 µM.

For `O=c1c(O)c(-c2ccc(O)c(O)c2)oc2cc(OCc3cccc(Cl)c3)cc(O)c12` [Compound 3i, 7-((3-Chlorobenzyl)oxy)-2-(3,4-dihydroxyphenyl)-3,5-dihydroxy-4H-chromen-4-one], the melting point is 260 to 261 °C. In data set [1], the EC50 is 3.8 ± 0.2 µM and the “SI (selectivity index)” value is 7.2. The compound further yielded a CC50 in data set [2] of 27.2 ± 0.2 µM.

For the compound `COc1cccc(C(=O)Oc2c(-c3ccc(O)c(O)c3)oc3cc(O)cc(O)c3c2=O)c1` [Compound 4h, 2-(3,4-Dihydroxyphenyl)-5,7-dihydroxy-4-oxo-4H-chromen-3-yl 3-methoxybenzoate], the melting point lay within 173 to 174 °C. Further, in data set [1], the EC50 came to 15.6 ± 0.3 µM and the “SI (selectivity index)” value is reported as more than 3.2. The compound further came in with a CC50 in data set [2] of more than 50 µM.

`O=c1c(O)c(-c2ccc(O)c(O)c2)oc2cc(OCc3cccc(F)c3)cc(O)c12` [Compound 3h, 2-(3,4-Dihydroxyphenyl)-7-((3-fluorobenzyl)oxy)-3,5-dihydroxy-4H-chromen-4-one] displayed a melting point of 243 to 245 °C. Also, it took 6.3 ± 0.2 µM to reach a half-maximal effect in data set [1] (EC50). Also, half-maximal cytotoxicity in data set [2] (CC50) was put at 44.5 ± 3.7 µM.

`N#Cc1cccc(C(=O)Oc2c(-c3ccc(O)c(O)c3)oc3cc(O)cc(O)c3c2=O)c1` [Compound 4i, 2-(3,4-Dihydroxyphenyl)-5,7-dihydroxy-4-oxo-4H-chromen-3-yl 3-cyanobenzoate] displayed a melting point of 142 to 143 °C. Further, in data set [1], the EC50 worked out at 13.1 ± 1 µM and the “SI (selectivity index)” value is more than 3.8. Moreover, in data set [2], the CC50 was more than 50 µM.

Consider `O=c1c(O)c(-c2ccc(O)c(O)c2)oc2cc(OCc3ccc([N+](=O)[O-])cc3)cc(O)c12` [Compound 3s, 2-(3,4-Dihydroxyphenyl)-3,5-dihydroxy-7-((4-nitrobenzyl)oxy)-4H-chromen-4-one], for which the melting point lay within 253.5 to 254.5 °C. Also, in data set [1], the response was half-maximal at 4.3 ± 0.2 µM (EC50) and the “SI (selectivity index)” value turned out to be 4.5. The same compound had a CC50 in data set [2] of 19.6 ± 0.2 µM.

For the compound `O=C(Oc1c(-c2ccc(O)c(O)c2)oc2cc(O)cc(O)c2c1=O)c1ccccc1` [Compound 4a, 2-(3,4-Dihydroxyphenyl)-5,7-dihydroxy-4-oxo-4H-chromen-3-yl benzoate], the melting point lay in the range of 173 to 174 °C. Also, in data set [1], the EC50 turned out to be 14.3 ± 5.1 µM and the “SI (selectivity index)” value is on record as more than 3.5. For the same compound, the CC50 in data set [2] was more than 50 µM.
